The source of these data is patent US20260184706A1, “PHENYLSULFONAMIDE DERIVATIVES, PREPARATION METHOD THEREFOR, AND PHARMACEUTICAL COMPOSITION FOR PREVENTION OR TREATMENT OF CANCER CONTAINING SAME AS ACTIVE INGREDIENT” (Korea Research Institute of Chemical Technology, priority 2022, published 2026).

The structures appear in SMILES notation. Where only a bound is given, the exact number is not on record here.

For assay [1], the target named is recombinant human HRI protein (Homo sapiens, UniProt Q9BQI3). Briefly: eIF2-alpha kinase heme-regulated inhibitor (HRI) inhibitory capacity, 33P-ATP filter assay. The assay is classed as biochemical. The following applies: 45 uM [gamma-33P-ATP], 40 minutes, room temperature. On the procedure: <Experimental Example 3> Evaluation of eIF2-Alpha Kinase Heme-Regulated Inhibitor (HRI) Inhibitory Capacity
A recombinant human HRI protein was mixed with the compound in a reaction solution (50 mM Tris/HCl pH 7.5, 0.04 mM EDTA, 300 uM RSRSRSRSRSRSRSR, 10 mM Magnesium acetate, 45 uM [gamma-33P-ATP]) and reacted at room temperature for 40 minutes. Then, the reaction was terminated by adding phosphoric acid (0.5%) to the reaction mixture, and […] of the reaction solution was dropped onto a P30 filter. The filter was washed four times in a 0.425% phosphoric acid solution for 4 minutes, then […] washed once more in methanol, dried, and the HRI activity was measured by scintillation counting. […] The compound was diluted by 1/3 from the highest concentration of 1 uM and treated with a total of 9 concentrations to evaluate the degree of inhibition.

Assay [2] deals with T1, phosphorylated GCN2 (Homo sapiens, UniProt Q9P2K8).
T1 construct: endogenous in cells; host or cells: HT-1080
In words: Inhibition of phosphorylated GCN2 under amino acid deficiency in HT-1080 cells, Western blot. It counts as cell-based. The following applies: compound 50 nM, 24 hours; for Phospho-GCN2 inhibition: symbols ◯ / X not defined. On the procedure:
<Experimental Example 5> Evaluation of Inhibitory Efficacy of ISR-Related Kinase GCN2 Under Amino Acid Deficiency Condition Using Western Blot
HT-1080 cells, a human fibrosarcoma cell line, were cultured in RPMI-1640 medium supplemented with 10% FBS, penicillin (penicillin; 100 IU/ml), and streptomycin (streptomycin; 100 μg/ml). Cells (1×10^6 cells/ml) were seeded onto 100 mm plates (polypropylene tissue culture plate) and incubated for 24 hours in a 37° C., 5% CO2 incubator before being used for experiments.
The following method was used to achieve amino acid deficiency conditions in cells. After 24 hours of cell culture, the cells were cultured in amino acids and L-glutamine-free RPMI-1640 medium supplemented with 10% FBS, penicillin (100 IU/ml), and streptomycin (100 μg/ml). After 24 hours of cell culture in RPMI-1640 without amino acids and L-glutamine, the compound prepared at a concentration of 50 nM was dispensed onto each plate and cultured for 24 hours in a 37° C., 5% CO2 incubator.
In order to measure the signal transduction inhibitory efficacy of GCN among the ISR-related kinases according to the present invention, the following experiment was performed using SDS-PAGE. The fibrosarcoma cell line HT-1080 cells cultured on plates as described above were washed with PBS after removing the culture medium. After removing PBS, the cells were lysed by adding a radio-immunoprecipitation assay buffer (RIPA buffer) containing 50 mM Tris (pH 7.4), 150 mM NaCl, 1% NP-40, 0.5% sodium deoxycholate, 2 mM sodium fluoride, 2 mM EDTA, 0.1% SDS, and a protease/phosphatase inhibitor cocktail to the plate. After centrifugation at 4° C., 13,000×g for 15 minutes, the protein in the upper layer was collected, and the protein concentration was measured at 562 nm using BCA (bicinchoninc acid) reagent, and the amount of protein in all samples was prepared at 20-50 μg.
After making the total volume the same using the sample buffer and RIPA buffer, it was heated at 97° C. for 5 minutes. Then, electrophoresis was performed on 8% or 12% SDS-PAGE at 80 V for 30 minutes and at 160 V for 1 hour and 30 minutes. After electrophoresis, the SDS-PAGE gel was transferred to an NC membrane (nitrocellulose membrane) at 90 V for 2 hours. The NC membrane was placed in TBST (tris buffer saline tween-20; 20 mM tris, 137 mM sodium chloride, 0.1% tween-20, pH 8.0) containing 5% non-fat skim milk, placed on a shaker, and reacted at room temperature for 1 hour.
Each primary antibody was diluted in TBST containing 5% non-fat skim milk, poured onto the NC membrane, and reacted at 4° C. for 24 hours. The membrane was washed three times for 10 minutes each with TBST. The secondary antibodies (anti-rabbit IgG and anti-mouse IgG labeled with horseradish peroxidase (HRP)) were diluted in TBST containing 5% non-fat skim milk and reacted with the membrane at room temperature for 1 hour. Upon completion of the reaction, the membrane was washed three times with TBST for 10 minutes each. Protein expression bands were detected by a chemiluminescence image analyzer (Image Quant LAS 500) after the ECL solution was reacted with the NC membrane.
GCN2, a key kinase of the integrated stress response (ISR), is phosphorylated in response to amino acid deficiency.
A general note: A western blot detects proteins with antibodies after separation by electrophoresis.

In assay [3] the target is recombinant human PKR protein (Homo sapiens, UniProt P19525). In words: Protein kinase R (PKR) inhibitory capacity, 33P-ATP filter assay. The assay is classed as biochemical. The following applies: 15 uM [gamma-33P-ATP], 40 minutes, room temperature. On the procedure:
<Experimental Example 4> Evaluation of Protein Kinase R (PKR) Inhibitory Capacity
A recombinant human PKR protein was mixed with the compound in a reaction solution (8 mM MOPS pH 7.0, 0.2 mM EDTA, 20 uM RSRSRSRSRSRSRSR, 10 mM Magnesium acetate, 15 uM [gamma-33P-ATP]) and reacted at room temperature for 40 minutes. Then, the reaction was terminated by adding phosphoric acid (0.5%) to the reaction mixture, and 10 ul of the reaction solution was dropped onto a P30 filter. The filter was washed four times in a 0.425% phosphoric acid solution for 4 minutes, then washed once more in methanol, dried, and the PKR activity was measured by scintillation counting. […] The compound was diluted by 1/3 from the highest concentration of 1 uM and treated with a total of 9 concentrations to evaluate the degree of inhibition.

recombinant human HRI protein, sequence (Q9BQI3 whole entry): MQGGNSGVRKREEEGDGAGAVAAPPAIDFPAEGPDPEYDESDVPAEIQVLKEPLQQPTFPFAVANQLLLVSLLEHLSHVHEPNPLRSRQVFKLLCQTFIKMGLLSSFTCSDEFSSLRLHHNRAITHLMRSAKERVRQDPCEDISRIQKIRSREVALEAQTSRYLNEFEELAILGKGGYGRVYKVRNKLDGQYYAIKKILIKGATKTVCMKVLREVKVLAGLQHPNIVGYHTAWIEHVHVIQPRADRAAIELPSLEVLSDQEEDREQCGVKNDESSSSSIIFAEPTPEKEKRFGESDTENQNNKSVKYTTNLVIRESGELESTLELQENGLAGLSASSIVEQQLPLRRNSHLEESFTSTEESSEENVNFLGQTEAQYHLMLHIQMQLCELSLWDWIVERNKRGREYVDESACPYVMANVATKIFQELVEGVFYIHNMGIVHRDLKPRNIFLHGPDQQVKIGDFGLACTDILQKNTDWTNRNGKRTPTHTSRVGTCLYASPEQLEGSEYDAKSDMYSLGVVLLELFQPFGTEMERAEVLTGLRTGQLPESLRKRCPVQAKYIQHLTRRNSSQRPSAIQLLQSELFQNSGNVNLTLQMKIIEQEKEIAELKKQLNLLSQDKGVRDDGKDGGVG
recombinant human PKR protein, sequence (P19525 whole entry): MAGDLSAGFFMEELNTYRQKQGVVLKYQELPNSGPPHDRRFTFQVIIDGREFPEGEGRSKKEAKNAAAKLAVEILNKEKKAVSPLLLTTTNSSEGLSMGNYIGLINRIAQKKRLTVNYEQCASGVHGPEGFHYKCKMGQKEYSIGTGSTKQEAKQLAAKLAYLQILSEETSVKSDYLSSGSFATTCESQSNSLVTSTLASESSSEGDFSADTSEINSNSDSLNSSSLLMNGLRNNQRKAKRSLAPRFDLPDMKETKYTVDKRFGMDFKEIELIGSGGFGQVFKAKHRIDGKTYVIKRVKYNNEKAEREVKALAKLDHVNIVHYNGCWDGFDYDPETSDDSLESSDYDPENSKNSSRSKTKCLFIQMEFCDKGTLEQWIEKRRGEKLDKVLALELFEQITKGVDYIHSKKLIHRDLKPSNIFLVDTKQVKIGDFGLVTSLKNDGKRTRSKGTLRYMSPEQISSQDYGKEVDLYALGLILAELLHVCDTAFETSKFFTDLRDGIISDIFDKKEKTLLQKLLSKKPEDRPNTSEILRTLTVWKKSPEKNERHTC
T1 sequence (Q9P2K8 whole entry): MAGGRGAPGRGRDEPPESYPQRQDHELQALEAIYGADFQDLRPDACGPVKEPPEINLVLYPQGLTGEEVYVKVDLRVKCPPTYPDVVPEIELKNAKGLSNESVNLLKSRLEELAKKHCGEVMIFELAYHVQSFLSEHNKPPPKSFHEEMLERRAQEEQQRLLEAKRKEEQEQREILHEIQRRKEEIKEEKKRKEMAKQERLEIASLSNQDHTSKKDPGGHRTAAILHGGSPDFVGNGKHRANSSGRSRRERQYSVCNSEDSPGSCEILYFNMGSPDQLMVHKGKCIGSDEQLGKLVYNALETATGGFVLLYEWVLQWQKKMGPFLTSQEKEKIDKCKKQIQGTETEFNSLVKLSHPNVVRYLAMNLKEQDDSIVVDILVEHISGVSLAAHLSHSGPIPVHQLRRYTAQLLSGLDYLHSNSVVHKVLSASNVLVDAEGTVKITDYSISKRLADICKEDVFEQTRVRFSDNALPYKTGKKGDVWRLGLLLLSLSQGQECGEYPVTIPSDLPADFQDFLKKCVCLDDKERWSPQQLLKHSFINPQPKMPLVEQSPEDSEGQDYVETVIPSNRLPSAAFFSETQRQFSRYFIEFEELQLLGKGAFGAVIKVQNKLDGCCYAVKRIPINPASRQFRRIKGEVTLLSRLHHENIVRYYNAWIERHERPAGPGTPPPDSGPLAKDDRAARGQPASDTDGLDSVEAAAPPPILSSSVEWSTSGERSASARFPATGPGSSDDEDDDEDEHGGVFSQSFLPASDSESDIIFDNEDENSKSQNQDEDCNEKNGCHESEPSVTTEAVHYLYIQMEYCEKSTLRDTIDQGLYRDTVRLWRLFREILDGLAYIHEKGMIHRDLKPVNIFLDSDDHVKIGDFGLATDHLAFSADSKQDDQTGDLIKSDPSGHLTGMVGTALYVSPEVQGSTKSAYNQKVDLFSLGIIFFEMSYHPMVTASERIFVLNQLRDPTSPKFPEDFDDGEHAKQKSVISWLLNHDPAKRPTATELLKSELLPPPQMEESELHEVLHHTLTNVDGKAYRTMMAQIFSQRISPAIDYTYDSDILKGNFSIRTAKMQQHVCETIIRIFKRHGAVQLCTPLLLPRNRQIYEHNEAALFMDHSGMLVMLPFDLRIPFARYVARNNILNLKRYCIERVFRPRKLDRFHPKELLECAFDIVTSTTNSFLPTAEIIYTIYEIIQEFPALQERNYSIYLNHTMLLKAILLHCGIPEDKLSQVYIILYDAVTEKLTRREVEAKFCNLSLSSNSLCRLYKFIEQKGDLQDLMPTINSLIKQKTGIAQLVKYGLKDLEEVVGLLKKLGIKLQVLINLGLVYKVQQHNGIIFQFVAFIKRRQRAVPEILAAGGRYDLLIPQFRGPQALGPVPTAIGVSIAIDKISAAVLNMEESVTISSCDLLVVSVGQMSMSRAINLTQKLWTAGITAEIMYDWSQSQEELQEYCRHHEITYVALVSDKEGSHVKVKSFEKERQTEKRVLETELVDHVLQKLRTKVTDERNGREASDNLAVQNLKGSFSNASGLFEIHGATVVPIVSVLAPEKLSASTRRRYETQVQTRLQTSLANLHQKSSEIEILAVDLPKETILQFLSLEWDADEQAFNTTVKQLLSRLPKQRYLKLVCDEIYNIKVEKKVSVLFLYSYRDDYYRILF

Take `COc1ncc(Cl)cc1S(=O)(=O)Nc1ccc(F)c(-n2cc(C(F)F)c3nc(N)ncc3c2=O)c1F` [Example 22, N-(3-(2-amino-8-(difluoromethyl)-5-oxopirido[4,3-d]pyrimidin-6(5H)-yl)-2,4-difluorophenyl)-5-chloro-2-methoxypyridine-3-sulfonamide]: the half-inhibitory concentration (IC50) (as a rule, the concentration needed to halve the response being measured) in assay [1] is less than 100 nM. For the same molecule, in assay [2], the “inhibitory effect on the phosphorylated GCN2” value (from here on “inhibitory effect”) is reported as “excellent inhibitory effects” and the Phospho-GCN2 inhibition result was “◯”. Also, the IC50 in assay [3] was in the range of 300 to 1000 nM.
Turning to `Nc1ncc2c(=O)n(-c3c(F)ccc(NS(=O)(=O)c4cc(Cl)cnc4Cl)c3F)ccc2n1` [Example 27, N-(3-(2-amino-5-oxopirido[4,3-d]pyrimidin-6(5H)-yl)-2,4-difluorophenyl)-2,5-dichloropyridine-3-sulfonamide], the IC50 in assay [1] is less than 100 nM. For the same molecule, in assay [2], the “inhibitory effect” value is recorded as “excellent inhibitory effect” and the Phospho-GCN2 inhibition result is “◯”. Moreover, the IC50 in assay [3] was greater than 1000 nM.
The corresponding values for `Nc1ncc2c(=O)n(-c3c(F)ccc(NS(=O)(=O)c4cccc5ccccc45)c3F)ccc2n1` [Example 29, N-(3-(2-amino-5-oxopirido[4,3-d]pyrimidin-6(5H)-yl)-2,4-difluorophenyl)naphthalene-1-sulfonamide] are less than 100 nM, “excellent inhibitory effects”, “◯” and 100 to 300 nM.
Taken in the same sequence, the figures for `CNc1ncc2c(=O)n(-c3c(F)ccc(NS(=O)(=O)c4cc(Cl)cnc4OC)c3F)ccc2n1` [Example 32, 5-chloro-N-(2,4-difluoro-3-(2-(methylamino)-5-oxopirido[4,3-d]pyrimidin-6(5H)-yl)phenyl)-2-methoxypyridine-3-sulfonamide] were less than 100 nM, “excellent inhibitory effect”, “◯” and greater than 1000 nM.
The corresponding values for `COc1ncc(Cl)cc1S(=O)(=O)Nc1ccc(F)c(-n2c(=O)c3cnc(N)nc3n(C)c2=O)c1F` [Example 44, N-(3-(7-amino-1-methyl-2,4-dioxo-1,4-dihydropyrimido[4,5-d]pyrimidin-3(2H)-yl)-2,4-difluorophenyl)-5-chloro-2-methoxypyridine-3-sulfonamide] are less than 100 nM, “excellent inhibitory effects”, “◯” and 300 to 1000 nM.
For the molecule `COc1ncc(Br)cc1S(=O)(=O)Nc1ccc(F)c(-n2c(=O)c3cnc(N)nc3n(C)c2=O)c1F` [Example 46, N-(3-(7-amino-1-methyl-2,4-dioxo-1,4-dihydropyrimido[4,5-d]pyrimidin-3(2H)-yl)-2,4-difluorophenyl)-5-bromo-2-methoxypyridine-3-sulfonamide], the IC50 in assay [1] is 100 to 300 nM; in assay [3] it was 300 to 1000 nM. Besides, the “inhibitory effect” value in assay [2] is reported as “excellent inhibitory effects”. Also, the Phospho-GCN2 inhibition entry in assay [2] is “◯”.
